# Earlier results, collected in US20100255118A1, “ORAL ZINC MEDICANTS USEFUL FOR SAFELY LOWERING FREE COPPER ABSORPTION AND FREE COPPER LEVELS” (priority 2007, published 2010).
# Key:
# [1] = infant rhesus monkeys
# [2] = adequate intake by mothers prior to pregnancy
# [3] = Wilson's patients
# [4] = humans, oral dose of Cu64 as copper acetate
molecule,measurement,setting,value
[67Cu] [Cu^67],copper absorption,[1],50-70%
Nc1nc2ncc(CNc3ccc(C(=O)N[C@@H](CCC(=O)O)C(=O)O)cc3)nc2c(=O)[nH]1 [folic acid],reduction of the incidence of NTDs,[2],up to 70%
[Zn] [zinc],time to achieve intestinal metallothionein induction and a negative copper balance,[3],approximately two
same,copper balance induced (average),[3]; at the two week point,−0.35 mg daily
copper acetate,oral dose absorbed from the gastrointestinal tract,[4],about 65%
same,oral dose absorbed from the gastrointestinal tract (range),[4]; range,15-97%
